The text below walks through data of patent publication US7815900B1, “Use of C3-C5 monosaccharides to protect keratinous fibers” (L'Oréal S.A., priority 2000, dated 2010).

Test [1] can be described thus: DSC doublet peak area (α-structure) of hair after heat cycles. The settings on record: for Doublet Peak Area, normalized: 5 cycles. On the procedure: (§1) Normal blonde hair was bleached with Clairol Basic White Bleach (40 volume H2O2) for 20 min at standard room temperature and humidity. The bleached swatches were rinsed with tap water, and soaked in an excess of deionized water for 2 hours. The swatches were air-dried and equilibrated for 48 hours prior to further treatment. Some of the bleached swatches were subsequently “permed” using a Reforming Lotion (10% TGA, pH 8.8, 20 minutes) and then neutralized with 2% H2O2, pH 3 (5 minutes). The bleached/permed swatches were rinsed with tap water, and soaked in an excess of deionized water for 2 hours. The swatches were air-dried and equilibrated for 48 hours prior to further treatment. The swatches that were heat treated were treated with 0.06M solutions of hexoses and pentoses for 10 min at 45° C. and then were heated for 12 cycles. The swatches were rinsed after the heat application.
In the DSC tests, finely cut hair (4-5 mg) was crimped in an aluminum pan that was punctured prior to each run. The samples were heated from 25° C. to 300° C., at a scanning rate of 20° C./min, with 5 runs per treatment. The results were averaged.
(§2) Normal blonde hair was bleached with Clairol Basic White Bleach, 40 volume H2O2, for 20 min at room temperature. One batch of normal and bleached hair swatches underwent five heat cycles at 130° C., where one treatment cycle involved the following steps (1-4):
(§3) 1. The swatches were treated with 0.06 M solutions of monosaccharides in deionized water (about 1 wt %) for 10 min at 45° C.
(§4) 2. The treated swatches were blow-dried for 1 min.
(§5) 3. The heat was applied for 1 min in the form of a flat hair iron Windmere “Solid Gold” (130° C.).
(§6) 4. The swatches were rinsed and blot-dried with a paper-towel.
(§7) The treatment solutions included four pentoses (D-xylose, D-arabinose, D-lyxose, and D-ribose, 1% each) and one hexose (1.2% D-glucose). Deionized water was used as a control treatment. After the heat experiment, the hair was rinsed in water, air-dried, and equilibrated for 24 hours in the humidity chamber at 25° C. and 50% RH prior to further testing. These swatches are referred to as treated at 130° C.
(§8) A second batch of normal and bleached hair swatches were treated in a similar way and blow-dried, without application of the hot iron. The treatment was also repeated 5 times, the swatches from the second batch are referred to as treated at 45° C.
Normal blonde hair was subjected to 12 heat cycles, as described in Example 2, using the following treatment solutions: 0.1% D-Xylose (pentose), 0.1% D-Erythrose (tetrose), and 0.1% D-Glyceraldehyde (triose). Each of the C3 to C5 monosaccharides was effective in protecting or reducing the damage to the α-structure of the hair, as compared to water treatment (Table 15).
Normal blonde hair was subjected to 12 heat cycles, as described in Example 2, using 0.1 wt % of the pentose amine derivative, D-Lyxosylimine in deionized water.

Experiment in test [2]: as above
The settings on record: for Doublet Peak Area: bleached/permed hair after 12 heat cycles, 0.06 M solutions. On the procedure: Normal blonde hair was bleached with Clairol Basic White Bleach (40 volume H2O2) for 20 min at standard room temperature and humidity. The bleached swatches were rinsed with tap water, and soaked in an excess of deionized water for 2 hours. The swatches were air-dried and equilibrated for 48 hours prior to further treatment. Some of the bleached swatches were subsequently “permed” using a Reforming Lotion (10% TGA, pH 8.8, 20 minutes) and then neutralized with 2% H2O2, pH 3 (5 minutes). The bleached/permed swatches were rinsed with tap water, and soaked in an excess of deionized water for 2 hours. The swatches were air-dried and equilibrated for 48 hours prior to further treatment. The swatches that were heat treated were treated with 0.06M solutions of hexoses and pentoses for 10 min at 45° C. and then were heated for 12 cycles. The swatches were rinsed after the heat application. In the DSC tests, finely cut hair (4-5 mg) was crimped in an aluminum pan that was punctured prior to each run. The samples were heated from 25° C. to 300° C., at a scanning rate of 20° C./min, with 5 runs per treatment. The results were averaged. Normal blonde hair was divided in two batches. The hair from the first batch was bleached with Clairol Basic White Bleach, 40 volume H2O2, for 20 min at room temperature and humidity. The hair from the second batch was first bleached as above, and then permed: Reforming lotion-10% Thioglycolic acid, pH 8.8, 20 min; neutralizer-2% hydrogen peroxide, 5 min. The oxidatively damaged hair was equilibrated for 24 hours prior to further testing. Both the bleached and the bleached/permed hair were subjected to heat treatment, as in Example 2. The heat treatment experiment involved 12 heat cycles including application of sugar or control solution before each heat application, and rinsing after the heat application. Deionized water was used as a control treatment. After the heat experiment, the hair was rinsed in water, air-dried, and equilibrated for 24 h in the humidity chamber at 25° C. and 50% RH prior to further testing. The effect of the hexoses vs. pentoses on the dry tensile strength (INSTRON) and the alpha-structure (doublet peak area, DSC) was tested on the bleached hair (Table 13). The effect of a hexose (D-glucose) vs. a pentose (D-Xylose) on wet tensile strength (DIA-STRON) was tested both on the bleached and the bleached/permed hair (Table 14). Application of 0.06M solutions of pentoses protected the bleached and the bleached/permed hair against thermal damage (α-structure; wet and dry tensile strength).

Test [3] can be described thus: Dry tensile strength (Instron) after heat cycles. The settings on record: normal blonde hair, 0.06 M solutions, n = 50 fibers; for Work 25%: dry, 5 cycles at 45° C.; for Work 25% (Dry): 5 heat cycles at 130° C. On the procedure: (§9) Tensile strength was determined using both the Instron (50 dry fibers per tests) and the Dia-Stron (100 wet fibers per test), with the stretching rate of 100 mm/min. The following parameters were determined: Young's Modulus (N/m^2), Work to stretch 25% (J/m^2); Extension to Break (degree of elongation) (%); Work to Break (J/m^2).
as §2, §3, §4, §5, §6, §7, §8

A short description of test [4]: Dry tensile strength (Instron) after heat cycles. The protocol:
as §1, §9, §2, §3, §4, §5, §6, §7, §8
Both the bleached and the bleached/permed hair were subjected to heat treatment, as in Example 2. The heat treatment experiment involved 12 heat cycles including application of sugar or control solution before each heat application, and rinsing after the heat application. Deionized water was used as a control treatment.
After the heat experiment, the hair was rinsed in water, air-dried, and equilibrated for 24 h in the humidity chamber at 25° C. and 50% RH prior to further testing. The effect of the hexoses vs. pentoses on the dry tensile strength (INSTRON) and the alpha-structure (doublet peak area, DSC) was tested on the bleached hair (Table 13). The effect of a hexose (D-glucose) vs. a pentose (D-Xylose) on wet tensile strength (DIA-STRON) was tested both on the bleached and the bleached/permed hair (Table 14). Application of 0.06M solutions of pentoses protected the bleached and the bleached/permed hair against thermal damage (α-structure; wet and dry tensile strength).

The mark [5] stands for this setting: normal blonde hair, 5 cycles at 45° C., 0.06 M solutions.
The mark [6] stands for this setting: normal blonde hair, 45° C. (blow drying).
Where [7] appears, read: normal blonde hair, 130° C. (blow-drying + hot iron).
The mark [8] stands for this setting: normal blonde hair, 5 heat cycles at 130° C., 0.06 M solutions.
[9] abbreviates: bleached hair after 12 heat cycles, 0.06 M solutions, n = 100 fibers.
The mark [10] stands for this setting: bleached hair, 5 heat cycles at 130° C., 0.06 M solutions, n = 50 fibers.
Setting [11] is: dry bleached hair, 12 heat cycles, 0.06 M, INSTRON, n = 50 fibers.
The mark [12] stands for this setting: dry, bleached hair, 5 cycles at 45° C., 0.06 M solutions, n = 50 fibers.

Consider `O=C[C@H](O)[C@@H](O)[C@H](O)[C@H](O)CO` [D-Glucose, reference compound], for which the entries for the “Doublet Peak Area” value in test [1] (setting [5]), in test [1] (setting [8]) and in test [2] were 11.65 +/− 4.98 J/g hair, 7.60 +/− 1.01 J/g hair and 4.96 +/− 0.32 J/g hair, respectively. For the same molecule, the “Doublet Peak Area, normalized” value is given as 11.65 +/− 4.98 J/g hair in test [1] (setting [6]) and 7.60 +/− 1.01 J/g hair in test [1] (setting [7]). For the same molecule, the “Work 25%” value in test [3] is on record as 837.0 +/− 255.9 J/m^2; in test [4] (setting [11]), 913.9 +/− 158.2 J/m^2; in test [4] (setting [12]), 984.6 +/− 169.6 J/m^2. The entries for the “Work 25% (Dry)” value in test [3], in test [4] (setting [9]) and in test [4] (setting [10]) were 836.9 +/− 119.6 J/m^2, 913.9 +/− 158.2 J/m^2 and 864.7 +/− 184.4 J/m^2, respectively. Moreover, the Extension-Break in test [4] (setting [11]) is 56.01 +/− 7.21%. Moreover, the Work-Break in test [4] (setting [11]) is reported as 2,599 +/− 604 J/m^2. For the same molecule, the “Young's Modulus” value in test [4] (setting [11]) is 4,623 +/− 813 MN/m^2.
Take `O=C[C@H](O)[C@@H](O)[C@H](O)CO` [D-Xylose]: the Normalized area is on record as 16.05 +/− 5.05 J/g hair in test [1] (normal blonde hair after 12 heat cycles, 1% in water) and 9.78 +/− 1.48 J/g hair in test [2] (bleached/permed hair, 12 heat cycles, 0.06 M). Moreover, the “Doublet Peak Area” value in test [1] (normal blonde hair, 0.1 wt % solutions, 12 heat cycles at 130° C.) is given as 12.74 +/− 2.32 J/g hair; in test [1] (setting [5]), 20.17 +/− 11.98 J/g hair; in test [1] (setting [8]), 15.27 +/− 5.14 J/g hair; in test [2] it was 9.78 +/− 1.48 J/g hair. Further, the results for the “Doublet Peak Area, normalized” value in test [1] (setting [6]) and in test [1] (setting [7]) were 20.17 +/− 11.98 J/g hair and 15.27 +/− 5.14 J/g hair, respectively. Moreover, in test [1] (normal blonde hair, 12 heat cycles, 1% in water), the “protection of the hair structure as compared to water (DSC), in words” value is on record as “appeared to protect the hair structure”. In addition, the “Work 25%” value in test [3] is 1,155 +/− 224 J/m^2; in test [4] (setting [11]), 1,204 +/− 215 J/m^2; in test [4] (setting [12]), 1,182 +/− 215 J/m^2. Further, the “Work 25% (Dry)” value in test [3] is given as 1,150 +/− 818 J/m^2; in test [4] (setting [9]) it was 1,204 +/− 215 J/m^2; in test [4] (setting [10]), 1,051 +/− 191 J/m^2. Also, in test [4] (setting [11]), the Extension-Break is 55.28 +/− 7.08%. Besides, the Work-Break in test [4] (setting [11]) is 3,161 +/− 771 J/m^2. In test [4] (setting [11]), the “Young's Modulus” value is reported as 5,802 +/− 1,161 MN/m^2. Moreover, the “protection of dry tensile strength, in words” value in test [4] (hair treated 5 cycles at 45° C. and at 130° C.) was “improved protection both at 45 °C and at 130 °C”.
